This assay has as its system MV4-11, an acute myeloid leukemia cell line. Description: WST-8 cell viability assay (inhibition of cancer cell proliferation) in MV4-11. It is filed as cell-based. The conditions noted are these: Homo sapiens, MV4-11 cells, 72 hours, WST-8 assay; for inhibition at 10 µM: compound at 10 μM; for IC50: final concentration 0.02 to 100 μM. On the procedure: In order to confirm the inhibition of cancer cell proliferation of the compound, the WST-8 assay (Cyto X cell viability assay kit, LPS solution, Daejeon, Korea) was performed according to the manufacturer's protocol. MV4-11, an acute myeloid leukemia cell line, was inoculated into a 96-well plate at 3×10^3 per well. The cells were cultured for 24 hours, and treated with the compound at a concentration of 10 μM. After 72 hours, the culture medium was discarded and a chromatographic solution was added. Following a 1-hour incubation at 37° C., color development was observed, and the absorbance was measured at 480 nm using a Versamax microplate reader (Molecular Devices, CA, USA). In addition, in order to confirm the IC50 value of the compound in MV4-11, the cells were treated with the compound with the final concentration of 0.02 to 100 μM in the same manner as the experiment above.

Each structure is given as a SMILES string. Structures can show the parent of a compound that is named as a salt.

Inhibition and IC50 data for 22 compounds are collected here from patent publication US20260184681A1, “PIPERIDINE DERIVATIVE, SALT OF SAME, AND PHARMACEUTICAL COMPOSITION CONTAINING SAME AS ACTIVE INGREDIENT” (PHARMCADD CO., LTD., priority 2022, published 2026).

Regarding `CN(C)S(=O)(=O)N1CCCC(Nc2cc(NC(=O)c3ccc(C(C)(C)C)cc3)ccc2C(N)=O)C1` (stereo not shown) [Example A-3, 4-(tert-butyl)-N-(4-carbamoyl-3-((1-(N,N-dimethylsulfamoyl)piperidin-3-yl)amino)phenyl)benzamide], the inhibition at 10 µM stood at 87.6% and it took 6.74 µM to reach half-maximal inhibition (IC50).

`CC(C)(C)c1ccc(C(=O)Nc2ccc(C(N)=O)c(NC3CCCN(S(=O)(=O)Cc4ccccc4)C3)c2)cc1` (stereo not shown) [Example A-15, N-(3-((1-(benzylsulfonyl)piperidin-3-yl)amino)-4-carbamoylphenyl)-4-(tert-butyl)benzamide] yielded an inhibition at 10 µM of 95.9% and an IC50 of 4.1 µM.

The compound `CC(C)S(=O)(=O)N1CCCC(Nc2cc(NC(=O)c3ccc(C(C)(C)C)cc3)ccc2C(N)=O)C1` (stereo not shown) [Example A-18, 4-(tert-butyl)-N-(4-carbamoyl-3-((1-(isopropylsulfonyl)piperidin-3-yl)amino)phenyl)benzamide] came in with an inhibition at 10 µM of 90.3% and an IC50 of 9.6 µM.

On to `CCCCNC(=O)N1CCCC(Nc2cc(NC(=O)c3ccc(C(C)(C)C)cc3)ccc2C(=O)OC)C1` (stereo not shown) [Example B-4, methyl 4-(4-(tert-butyl)benzamido)-2-((1-(butylcarbamoyl)piperidin-3-yl)amino)benzoate], for which the inhibition at 10 µM was determined as 84.6% and the IC50 is 15.3 µM.

Compound `CC(C)(C)c1ccc(C(=O)Nc2ccc(C(N)=O)c(NC3CCCN(C(=O)NC4CCCCC4)C3)c2)cc1` (stereo not shown) [Example B-9, 3-((5-(4-(tert-butyl)benzamido)-2-carbamoylphenyl)amino)-N-cyclohexylpiperidine-1-carboxamide] displayed an inhibition at 10 µM of 94.6% and an IC50 of 2.4 µM.

Consider `CC(C)(C)c1ccc(C(=O)Nc2ccc(C(N)=O)c(NC3CCCN(C(=O)Nc4ccccc4)C3)c2)cc1` (stereo not shown) [Example B-12, 3-((5-(4-(tert-butyl)benzamido)-2-carbamoylphenyl)amino)-N-phenylpiperidine-1-carboxamide], for which the inhibition at 10 µM was 96.2% and half-maximal inhibition (IC50) required 3.8 µM.

In turn, `CC(C)(C)c1ccc(C(=O)Nc2ccc(C(N)=O)c(NC3CCCN(C(=O)NCc4cccc(F)c4)C3)c2)cc1` (stereo not shown) [Example B-15, 3-((5-(4-(tert-butyl)benzamido)-2-carbamoylphenyl)amino)-N-(3-fluorobenzyl)piperidine-1-carboxamide] registered an inhibition at 10 µM of 100% and an IC50 of 4.75 µM.

In turn, `CCc1cccc(CC)c1NC(=O)N1CCCC(Nc2cc(NC(=O)c3ccc(C(C)(C)C)cc3)ccc2C(N)=O)C1` (stereo not shown) [Example B-18, 3-((5-(4-(tert-butyl)benzamido)-2-carbamoylphenyl)amino)-N-(2,6-diethylphenyl)piperidine-1-carboxamide] yielded an inhibition at 10 µM of 93.7% and an IC50 of 5.32 µM.

`CC(C)(C)c1ccc(C(=O)Nc2ccc(C(N)=O)c(NC3CCCN(C(=O)Nc4ccc(I)cc4)C3)c2)cc1` (stereo not shown) [Example B-24, 3-((5-(4-(tert-butyl)benzamido)-2-carbamoylphenyl)amino)-N-(4-iodophenyl)piperidine-1-carboxamide]: at 10 µM the inhibition was 94% and the midpoint of inhibition, the IC50, lay at 4.68 µM.

As to `COc1cc([N+](=O)[O-])ccc1NC(=O)N1CCCC(Nc2cc(NC(=O)c3ccc(C(C)(C)C)cc3)ccc2C(N)=O)C1` (stereo not shown) [Example B-33, 3-((5-(4-(tert-butyl)benzamido)-2-carbamoylphenyl)amino)-N-(2-methoxy-4-nitrophenyl)piperidine-1-carboxamide], testing at 10 µM gave an inhibition of 80.5%.

In turn, `CC(C)(C)c1ccc(C(=O)Nc2ccc(C(N)=O)c(NC3CCCN(C(=O)Nc4ccc(C(F)(F)F)cc4)C3)c2)cc1` (stereo not shown) [Example B-36, 3-((5-(4-(tert-butyl)benzamido)-2-carbamoylphenyl)amino)-N-(4-(trifluoromethyl)phenyl)piperidine-1-carboxamide] had an inhibition at 10 µM of 97.2% and an IC50 of 7.81 µM.

`CCCCCCCCNC(=O)N1CCCC(Nc2cc(NC(=O)c3ccc(C(C)(C)C)cc3)ccc2C(N)=O)C1` (stereo not shown) [Example B-39, 3-((5-(4-(tert-butyl)benzamido)-2-carbamoylphenyl)amino)-N-octylpiperidine-1-carboxamide]: the inhibition at 10 µM came out at 100% and the IC50 amounted to 3.26 µM.

Turning to `CC(C)(C)c1ccc(C(=O)Nc2ccc(C(N)=O)c(NC3CCCN(C(=O)c4ccccc4)C3)c2)cc1` (stereo not shown) [Example C-6, N-(3-((1-benzoylpiperidin-3-yl)amino)-4-carbamoylphenyl)-4-(tert-butyl)benzamide], 10 µM produced 97.1% inhibition and the midpoint of inhibition, the IC50, lay at 4.48 µM.

Compound `CCN1CCCC(Nc2cc(NC(=O)c3ccc(C(C)(C)C)cc3)ccc2C(=O)OC)C1` [Example D-1, methyl 4-(4-(tert-butyl)benzamido)-2-((1-ethylpiperidin-3-yl)amino)benzoate] displayed an inhibition at 10 µM of 100% and an IC50 of 3.42 µM.

In turn, `CCCCN1CCCC(Nc2cc(NC(=O)c3ccc(C(C)(C)C)cc3)ccc2C(=O)OC)C1` [Example D-4, methyl 4-(4-(tert-butyl)benzamido)-2-((1-butylpiperidin-3-yl)amino)benzoate] had an inhibition at 10 µM of 97.8% and an IC50 of 2.2 µM.

Take `CCCCN1CCCC(Nc2cc(NC(=O)c3ccc(C(C)(C)C)cc3)ccc2C(N)=O)C1` [Example D-6, 4-(tert-butyl)-N-(3-((1-butylpiperidin-3-yl)amino)-4-carbamoylphenyl)benzamide]: testing at 10 µM gave an inhibition of 95.5% and the IC50 amounted to 4.5 µM.

The compound `COC(=O)c1ccc(NC(=O)c2ccc(C(C)(C)C)cc2)cc1NC1CCCN(C)C1` [Example D-7, methyl 4-(4-(tert-butyl)benzamido)-2-((1-methylpiperidin-3-yl)amino)benzoate] showed an inhibition at 10 µM of 100% and an IC50 of 4.59 µM.

As to `CN1CCCC(Nc2cc(NC(=O)c3ccc(C(C)(C)C)cc3)ccc2C(N)=O)C1` [Example D-9, 4-(tert-butyl)-N-(4-carbamoyl-3-((1-methylpiperidin-3-yl)amino)phenyl)benzamide], testing at 10 µM gave an inhibition of 100% and the IC50 came to 4.3 µM.

In turn, `CC(C)(C)c1ccc(C(=O)Nc2ccc(C(N)=O)c(NC3CCCNC3)c2)cc1` [Example D-10, 4-(tert-butyl)-N-(4-carbamoyl-3-(piperidin-3-ylamino)phenyl)benzamide trifluoroacetate] returned an inhibition at 10 µM of 70% and an IC50 of 2 µM.

`CC(C)(C)c1ccc(C(=O)Nc2ccc(C(N)=O)c(NC3CCNCC3)c2)cc1` [Example D-11, 4-(tert-butyl)-N-(4-carbamoyl-3-(piperidin-4-ylamino)phenyl)benzamide trifluoroacetate] showed an inhibition at 10 µM of 70% and a half-maximal inhibitory concentration (IC50) of 1.7 µM.

Compound `COC(=O)c1ccc(NC(=O)c2ccc(C(C)(C)C)cc2)cc1NC1CCCN(Cc2ccccc2)C1` (stereo not shown) [Example E-1, methyl 2-((1-benzylpiperidin-3-yl)amino)-4-(4-(tert-butyl)benzamido)benzoate] registered an inhibition at 10 µM of 70.1% and an IC50 of 2.2 µM.

Compound `CC(C)(C)c1ccc(C(=O)Nc2ccc(C(=O)O)c(NC3CCCN(Cc4ccccc4)C3)c2)cc1` (stereo not shown) [Example E-2, 2-((1-benzylpiperidin-3-yl)amino)-4-(4-(tert-butyl)benzamido)benzoic acid] gave an inhibition at 10 µM of 71.1% and an IC50 of 9.6 µM.
